For data set [1], the system named is A431 WT. In words: Cell proliferation assay (CellTiter-Glo), A431 WT. The data set is classed as cell-based. To be noted: Homo sapiens, A-431; A431 WT cells, 72 hour incubation, CTG readout. The procedure: (§1) • DMEM Medium (Gibco, Cat#11965118) • RPMI1640 Medium (Gibco, Cat#11875119) • Fetal Bovine Serum (FBS) (GBICO, Cat#10099-141) • CellTiter-Glo® Luminescent Cell Viability Assay Kit (Promega, Cat#G7572) 96-well, Black, Clear Flat Bottom Plate (Corning®, Cat# 3603)
(§2) • SpectraMax Multimode Microplate Reader MD, 2104-0010A; • CO2 Incubator, Thermo Scientific 3100 Series; • Biosafety Cabinet, Thermo Scientific, 1300 Series A2; • Inverted Microscope, Olympus, CKX41SF; • Siemens Refrigerator, KK25E76TI.
(§3) • 1. Cell Culture and Inoculation: • (1) Harvest cells in a logarithmic growth phase and count the cells using a […]. Test cell viability using a trypan blue exclusion method to ensure that cell viability is above 90%. • (2) Adjust the cell concentration to desired final density; and add 90 µL of cell suspension to a 96-well plate. • (3) Incubate the cells overnight at 37°C, under 5% CO2 and 95% humidity in the 96-well plate. • 2. T0 Reference Data: • (1) Add 10 µL PBS to each well of the T0 plate containing cells. • (2) Thaw the CTG reagent and equilibrate the plate to room temperature for 30 minutes. • (3) Add an equal volume of CTG solution to each well. • (4) Lyse cells by shaking on an orbital shaker for 5 minutes. • (5) Leave the plate at room temperature for 20 minutes to stabilize the luminescence signal. • (6) Read the T0 […]. • 3. Compound Dilution and Addition • (1) Add a corresponding volume of DMSO to a corresponding compound powder according to the compound information sheet to prepare a 10 mM stock solution. • (2) Prepare 1000-fold and 3.16-fold diluted compound solutions. • (3) Dilute the 1000× diluted compound solution 100-fold with PBS to prepare a 10-fold compound solution, with a maximum concentration of 10 µM, nine concentrations and 3.16-fold dilution. Then add 10 µL of the drug solution concentration to individual wells of the 96-well plate seeded with cells. Test each compound concentration in triplicate wells, and the final DMSO concentration is 0.1%. • (4) Incubate the cells in the 96-well plate containing the drug compounds at 37°C, under 5% CO2, and 95% humidity for an additional 72 hour period prior to performing the CTG analysis. • 4. Fluorescence Signal Reading • (1) Thaw the CTG reagent and equilibrate the plate to room temperature for 30 minutes. • (2) Add an equal volume of CTG solution to each well. • (3) Lyse cells by shaking on an orbital shaker for 5 minutes. • (4) Leave the plate at room temperature for 20 minutes to stabilize the […]. • (5) Read fluorescence value. • 5. Data Processing
(§4) Analyze the data by using GraphPad Prism 7.0 software, and use Non-linear S-curve regression to fit the dose-response curves, to calculate the IC50 values (in nM). The specific experiment results are presented in Table 1: [formula] Table 1: Biology Test Results
A general note: Cellular ATP, detected with luciferase, serves as a proxy for viable cell number.

Data set [2] deals with Ba/F3 EGFR-L858R-T790M-C797S (LTC). Kind of data set: Cell proliferation assay (CellTiter-Glo), Ba/F3 LTC. The format is cell-based. To be noted: Mus musculus, BaF3; Ba/F3 EGFR-L858R-T790M-C797S cells, 72 hour incubation, CTG readout. The procedure:
as §1, §2, §3, §4

Data set [3] deals with Ba/F3 EGFR-DEL19-T790M-C797S (DTC). In words: Cell proliferation assay (CellTiter-Glo), Ba/F3 DTC. The data set is classed as cell-based. To be noted: Ba/F3 EGFR-DEL19-T790M-C797S cells, 72 hour incubation, CTG readout; read-out: IC50 BaF3 DTC. The procedure: as §1, §2, §3, §4
For data set [4], the system named is Ba/F3 EGFR-L858R-C797S (LC). In words: Cell proliferation assay (CellTiter-Glo), Ba/F3 LC. The format is cell-based. To be noted: Mus musculus, BaF3; Ba/F3 EGFR-L858R-C797S cells, 72 hour incubation, CTG readout. The procedure:
as §1, §2, §3, §4

Data set [5] has as its system Ba/F3 EGFR-DEL19-C797S (DC). Kind of data set: Cell proliferation assay (CellTiter-Glo), Ba/F3 DC. The data set is classed as cell-based. To be noted: Mus musculus, BaF3; Ba/F3 EGFR-DEL19-C797S cells, 72 hour incubation, CTG readout. Here is the method:
as §1, §2, §3, §4

Data set [6] is described as follows: Pharmacokinetic experiment in mice. The data set is classed as in vivo. To be noted: male, mouse; ICR mice, single oral administration (PO), 10 mg/kg, plasma. The source says: The purpose of this trial is to study the pharmacokinetic behavior of some compounds of the present invention, and the administration method is: Single oral administration (PO) to ICR mice.
The compounds used in this trial are from the compounds in the specific examples of the present invention and the listed positive compounds.
ICR mice male N=9 original source: Shanghai Sippr-Bk Lab Animal Co., Ltd.
The compounds are weighed and dissolved in the corresponding solution (10% PG + 10% Solutol® + 80% pH3 citrate buffer). The mixture is then shaken well and sonicated to prepare a 1 mg/mL stock solution. Nine mice are orally administered at a dose of 10 mg/kg (or IV 2 mg/kg) after an overnight fast.
About 90 µL of blood is collected via the submandibular vein per time point, heparin sodium anticoagulant is added, the sample is placed on ice after collection, and plasma is centrifuged within 1 hour (centrifugation conditions: 8,000 rpm, 6 minutes, 2-8°C). The blood collection timepoints are 0, 0.25, 0.5, 1, 2, 4, 6, 8 and 24 h. The samples are stored in a -20°C refrigerator.
The plasma sample is 40 µL, 160 µL of ice-cold acetonitrile containing internal standard is added, vortexed for 3 minutes, and centrifuged at 11,000 rpm for 5 minutes. 100 µL of the supernatant is taken and added to 100 µL of water, 5 µL of the sample is taken and injected into LC/MS/MS for analysis.

Broadly, the IC50 is the concentration that gives 50% inhibition. For the compound `CN1CCC(C#Cc2nn3c4cc(ncc24)Nc2ccnc(n2)-c2cnn(C)c2OCC2(CCCC2)C3)C1` (stereo not drawn) [Example 2, 1'-methyl-3-((1-methylpyrrolidin-3-yl)ethynyl)spiro(cyclopentane-1,6'-8-oxa-3-aza-4(6,1)-pyrazolo[4,3-c]pyridina-2(2,4)-pyrimidina-1(4,5)-pyrazolacyclooctaphane)], the IC50 was found to be 603 nM in data set [1]; 12.8 nM in data set [2]; 17.5 nM in data set [3]; 21.1 nM in data set [4]; 30.4 nM in data set [5].
The matching figures for `CN1CCC(C#Cc2nn3c4cc(ncc24)Nc2ccnc(n2)-c2cnn(C)c2OCC2(CCOCC2)C3)CC1` [Example 4, 1'-methyl-3'-((1-methylpiperidin-4-yl)ethynyl)-2,3,5,6-te trahydrospiro(pyran-4,6'-8-oxa-3-aza-4(6,1)-pyrazolo[4,3-c]pyridina-2(2,4)-pyrimidina-1(4,5)-pyrazolacyclooctaphane)]: 822 nM, 12.4 nM, 15.6 nM, 50.3 nM and 26.8 nM.
Taken in the same sequence, the figures for `CN1CCC(C#Cc2nn3c4cc(ncc24)Nc2ccnc(n2)-c2cnn(C)c2OCC2(CCC2)C3)CC1` [Example 5, 1'-methyl-3'-((1-methylpiperidin-4-yl)ethynyl)spiro(cyclobutane-1,6'-8-oxa-3-aza-4(6,1)-pyrazolo[4,3-c]pyridina-2(2,4)-pyrimidina-1(4,5)-pyrazolacyclooctaphane)] were 1080 nM, 9.2 nM, 4.7 nM, 14 nM and 19.7 nM.
By AUC(0-t) is commonly meant exposure summed from dosing to a finite time, without extrapolation to infinity. As usually defined, the Cmax is the maximum level reached in the sampled fluid or tissue. The term half-life denotes the time needed for the level to fall by half in the phase considered. High values mean slow decline, low ones rapid decline. With `CCN1CCC(C#Cc2nn3c4cc(ncc24)Nc2ccnc(n2)-c2cnn(C)c2OCC2(CCCC2)C3)CC1` [Example 7, 3'-((1-ethylpiperidin-4-yl)ethynyl)-1'-methylspiro(cyclopentane-1,6'-8-oxa-3-aza-4(6,1)-pyrazolo[4,3-c]pyridina-2(2,4)-pyrimidina-1(4,5)-pyrazolacyclooctaphane)], the IC50 in data set [1] came out at 1660 nM. The same compound had an IC50 in data set [2] of 24.6 nM. Also, 43.5 nM corresponded to half-maximal inhibition in data set [4] (IC50). In data set [6], this compound had an AUC(0-t) of 2520 ng·h/mL, a Cmax of 193 ng/mL and a half-life of 5.6 h.
On to `CN1CC(C#Cc2nn3c4cc(ncc24)Nc2ccnc(n2)-c2cnn(C)c2OCC2(CCCC2)C3)C1` [Example 8, 1'-methyl-3'-((1-methylazetidin-3-yl)ethynyl)spiro(cyclopentane-1,6'-8-oxa-3-aza-4(6,1)-pyrazolo[4,3-c]pyridina-2(2,4)-pyrimidina-1(4,5)-pyrazolacyclooctaphane)], for which the IC50 in data set [1] was determined as 499 nM; in data set [2], 39.4 nM; in data set [3], 27.8 nM; in data set [4] it was 63.5 nM; in data set [5], 31.5 nM.
The matching figures for `CN1CCC(F)(C#Cc2nn3c4cc(ncc24)Nc2ccnc(n2)-c2cnn(C)c2OCC2(CCCC2)C3)CC1` [Example 9, 3'-((4-fluoro-1-methylpiperidin-4-yl)ethynyl)-1'-methyls piro(cyclopentane-1,6'-8-oxa-3-aza-4(6,1)-pyrazolo[4,3-c]pyridina-2(2,4)-pyrimidina-1(4,5)-pyrazolacyclooctaphane)]: 1920 nM, 47 nM, 18.4 nM, 62.7 nM and 32.8 nM.
Taken in the same sequence, the figures for `CN1CCC(F)(C#Cc2nn3c4cc(ncc24)Nc2ccnc(n2)-c2cnn(C)c2OCC2(CCOCC2)C3)CC1` [Example 11, 3'-((4-fluoro-1-methylpiperidin-4-yl)ethynyl)-1'-methyl-2,3,5,6-tetrahydrospiro(pyran-4,6'-8-oxa-3-aza-4(6,1)-pyrazolo[4,3-c]pyridina-2(2,4)-pyrimidina-1(4,5)-pyrazolacyclooctaphane)] were 807 nM, 133 nM, 92.2 nM, 187 nM and 128 nM.
Taken in the same sequence, the figures for `Cn1ncc2c1OCC1(CCCC1)Cn1nc(N3CC[C@@H](CO)C3)c3cnc(cc31)Nc1ccnc-2n1` [Example 21, (R)-(1-(1'-methylspiro(cyclopentane-1,6'-8-oxa-3-aza-4(6,1)-pyrazolo[4,3-c]pyridina-2(2,4)-pyrimidina-1(4,5) -pyrazolacyclooctaphane)-3 '-yl)pyrrolidin-3-yl)methanol] were 171 nM, 4.7 nM, 3.4 nM, 15.8 nM and 7.1 nM.
In turn, `Cn1ncc2c1OCC1(CCCC1)Cn1nc(N3CC[C@@H](O)C3)c3cnc(cc31)Nc1ccnc-2n1` [Example 22, (R)-1-(1'-methylspiro(cyclopentane-1,6'-8-oxa-3-aza-4(6,1)-pyrazolo[4,3-c]pyridina-2(2,4)-pyrimidina-1(4,5)-pyrazolacyclooctaphane)-3' -yl)pyrrolidin-3-ol] returned an IC50 in data set [1] of 409 nM. For the same compound, in data set [2], the IC50 is 5.9 nM. Besides, in data set [4], half-maximal inhibition (IC50) required 13.2 nM. Also, in data set [6], the AUC(0-t) turned out to be 2340 ng·h/mL, the concentration peaked (Cmax) at 503 ng/mL and the half-life is 3 h.
For `Cn1ncc2c1OCC1(CCCC1)Cn1nc(N3CC[C@@](C)(O)C3)c3cnc(cc31)Nc1ccnc-2n1` [Example 24, (R)-3-methyl-1-(1'-methylspiro(cyclopentane-1,6'-8-oxa-3-aza-4(6,1)-pyrazolo[4,3-c]pyridina-2(2,4)-pyrimidina-1(4,5)-pyrazolacyclooctaphane)-3'-yl)pyrrolidin-3-ol], the IC50 in data set [1] is 378 nM; in data set [2], 6.1 nM; in data set [3], 0.7 nM; in data set [5], 4.4 nM.
For `Cn1ncc2c1OCC1(CCCC1)Cn1nc(N3CC[C@H](CS(=O)(=O)C4CC4)C3)c3cnc(cc31)Nc1ccnc-2n1` [Example 40, (S)-3'-(3-((cyclopropylsulfonyl)methyl)pyrrolidin-1-yl)-1'-methylspiro(cyclopentane-1,6'-8-oxa-3-aza-4(6,1)-pyrazolo[4,3-c]pyridina-2(2, 4)-pyrimidina-1(4,5)-pyrazolacyclooctaphane)], the values for the IC50 in data set [1], in data set [2] and in data set [4] were 320 nM, 0.7 nM and 2.1 nM, respectively. This compound yielded an AUC(0-t) in data set [6] of 4940 ng·h/mL. In data set [6], this compound displayed a Cmax of 1350 ng/mL. Moreover, in data set [6], the half-life was 3.5 h.

The values above are taken from EP4563579A1, “MACROCYCLIC EGFR INHIBITOR, AND PREPARATION METHOD THEREFOR AND PHARMACEUTICAL USE THEREOF” (Abbisko Therapeutics Co., Ltd., priority 2022, dated 2024).
